# Laboratory results as given in patent US9469650B2, “Melampomagnolide B derivatives” (BOARD OF TRUSTEES OF THE UNIVERSITY OF ARKANSAS, priority 2013, dated 2016).
# Columns and labels:
# NCI-H23 = assay: panel of 60 human tumor cell lines, growth inhibition (Non-Small Cell Lung Cancer)
# UACC-62 = assay: panel of 60 human tumor cell lines, growth inhibition (Melanoma); settings: UACC-62
# NCI-H322M = assay: panel of 60 human tumor cell lines, growth inhibition (Non-Small Cell Lung Cancer)
# SF-295 = assay: panel of 60 human tumor cell lines, growth inhibition (CNS Cancer); settings: SF-295
# SNB-75 = assay: as above; settings: SNB-75
# A549/ATCC = assay: panel of 60 human tumor cell lines, growth inhibition (Non-Small Cell Lung Cancer); settings: A549/ATCC
# TK-10 = assay: panel of 60 human tumor cell lines, growth inhibition (Renal Cancer); settings: TK-10
# MDA-MB-468 = assay: panel of 60 human tumor cell lines, growth inhibition (Breast Cancer); settings: MDA-MB-468
# PC-3 = assay: panel of 60 human tumor cell lines, growth inhibition (Prostate Cancer); settings: PC-3
# UACC-257 = assay: panel of 60 human tumor cell lines, growth inhibition (Melanoma); settings: UACC-257
# U251 = assay: panel of 60 human tumor cell lines, growth inhibition (CNS Cancer); settings: U251
# A498 = assay: panel of 60 human tumor cell lines, growth inhibition (Renal Cancer); settings: A498
# SNB-19 = assay: panel of 60 human tumor cell lines, growth inhibition (CNS Cancer); settings: SNB-19
# M14 = assay: panel of 60 human tumor cell lines, growth inhibition (Melanoma); settings: M14
# SR = assay: panel of 60 human tumor cell lines, growth inhibition (Leukemia)
# HT29 = assay: panel of 60 human tumor cell lines, growth inhibition (Colon Cancer); settings: HT29
# SK-MEL-28 = assay: panel of 60 human tumor cell lines, growth inhibition (Melanoma); settings: SK-MEL-28
# OVCAR-3 = assay: panel of 60 human tumor cell lines, growth inhibition (Ovarian Cancer); settings: OVCAR-3
smiles,measurement,setting,value
C=C1C(=O)O[C@H]2[C@H]1CC/C(COC(=O)NC)=C\CC[C@@]1(C)O[C@@H]21 [JVM 2-57],TGI,NCI-H23; NCI five dose,2.04E−5
same,Percent Growth,"NCI-H23; NCI-H 3, Log10 Concentration −4.0",−68%
same,Percent Growth,"NCI-H23; NCI-H 3, Log10 Concentration −5.0",30%
same,Percent Growth,"NCI-H23; NCI-H 3, Log10 Concentration −6.0",92%
same,Percent Growth,"NCI-H23; NCI-H 3, Log10 Concentration −7.0",95%
same,Percent Growth,"NCI-H23; NCI-H 3, Log10 Concentration −8.0",94%
same,GI50,"NCI-H23; NCI-H 3, NCI five dose",4.79 µM
same,Percent Growth,UACC-62; Log10 Concentration −4.0,−86%
same,Percent Growth,UACC-62; Log10 Concentration −5.0,35%
same,Percent Growth,UACC-62; Log10 Concentration −6.0,86%
same,Percent Growth,UACC-62; Log10 Concentration −7.0,99%
same,Percent Growth,UACC-62; Log10 Concentration −8.0,100%
same,GI50,UACC-62; NCI five dose,5.11 µM
same,TGI,UACC-62; NCI five dose,1.95E−5
same,Percent Growth,NCI-H322M; Log10 Concentration −4.0,−17%
same,Percent Growth,NCI-H322M; Log10 Concentration −5.0,78%
same,Percent Growth,NCI-H322M; Log10 Concentration −6.0,97%
same,Percent Growth,NCI-H322M; Log10 Concentration −7.0,94%
same,Percent Growth,NCI-H322M; Log10 Concentration −8.0,98%
same,GI50,NCI-H322M; NCI five dose,19.7 µM
same,TGI,NCI-H322M; NCI five dose,6.62E−5
same,Percent Growth,SF-295; Log10 Concentration −4.0,−30%
same,Percent Growth,SF-295; Log10 Concentration −5.0,76%
same,Percent Growth,SF-295; Log10 Concentration −6.0,93%
same,Percent Growth,SF-295; Log10 Concentration −7.0,90%
same,Percent Growth,SF-295; Log10 Concentration −8.0,97%
same,GI50,SF-295; NCI five dose,17.5 µM
same,TGI,SF-295; NCI five dose,5.21E−5
same,Percent Growth,SNB-75; Log10 Concentration −4.0,−41%
same,Percent Growth,SNB-75; Log10 Concentration −5.0,55%
same,Percent Growth,SNB-75; Log10 Concentration −6.0,78%
same,Percent Growth,SNB-75; Log10 Concentration −7.0,76%
same,Percent Growth,SNB-75; Log10 Concentration −8.0,83%
same,GI50,SNB-75; NCI five dose,11.2 µM
same,TGI,SNB-75; NCI five dose,3.72E−5
same,Percent Growth,A549/ATCC; Log10 Concentration −4.0,−88%
same,Percent Growth,A549/ATCC; Log10 Concentration −5.0,71%
same,Percent Growth,A549/ATCC; Log10 Concentration −6.0,95%
same,Percent Growth,A549/ATCC; Log10 Concentration −7.0,99%
same,Percent Growth,A549/ATCC; Log10 Concentration −8.0,100%
same,GI50,A549/ATCC; NCI five dose,13.5 µM
same,TGI,A549/ATCC; NCI five dose,2.80E−5
same,Percent Growth,TK-10; Log10 Concentration −4.0,−95%
same,Percent Growth,TK-10; Log10 Concentration −5.0,−5%
same,Percent Growth,TK-10; Log10 Concentration −6.0,96%
same,Percent Growth,TK-10; Log10 Concentration −7.0,98%
same,Percent Growth,TK-10; Log10 Concentration −8.0,94%
same,GI50,TK-10; NCI five dose,2.86 µM
same,TGI,TK-10; NCI five dose,8.97E−6
same,Percent Growth,MDA-MB-468; Log10 Concentration −4.0,−65%
same,Percent Growth,MDA-MB-468; Log10 Concentration −5.0,−18%
same,Percent Growth,MDA-MB-468; Log10 Concentration −6.0,58%
same,Percent Growth,MDA-MB-468; Log10 Concentration −7.0,99%
same,Percent Growth,MDA-MB-468; Log10 Concentration −8.0,100%
same,GI50,MDA-MB-468; NCI five dose,1.26 µM
same,TGI,MDA-MB-468; NCI five dose,5.83E−6
same,Percent Growth,PC-3; Log10 Concentration −4.0,−70%
same,Percent Growth,PC-3; Log10 Concentration −5.0,67%
same,Percent Growth,PC-3; Log10 Concentration −6.0,96%
same,Percent Growth,PC-3; Log10 Concentration −7.0,97%
same,Percent Growth,PC-3; Log10 Concentration −8.0,98%
same,GI50,PC-3; NCI five dose,13.3 µM
same,TGI,PC-3; NCI five dose,3.08E−5
same,Percent Growth,UACC-257; Log10 Concentration −4.0,−91%
same,Percent Growth,UACC-257; Log10 Concentration −5.0,24%
same,Percent Growth,UACC-257; Log10 Concentration −6.0,73%
same,Percent Growth,UACC-257; Log10 Concentration −7.0,94%
same,Percent Growth,UACC-257; Log10 Concentration −8.0,94%
same,GI50,UACC-257; NCI five dose,2.96 µM
same,TGI,UACC-257; NCI five dose,1.62E−5
same,Percent Growth,U251; Log10 Concentration −4.0,−100%
same,Percent Growth,U251; Log10 Concentration −5.0,81%
same,Percent Growth,U251; Log10 Concentration −6.0,92%
same,Percent Growth,U251; Log10 Concentration −7.0,97%
same,Percent Growth,U251; Log10 Concentration −8.0,99%
same,GI50,U251; NCI five dose,14.9 µM
same,TGI,U251; NCI five dose,2.81E−5
same,Percent Growth,A498; Log10 Concentration −4.0,−90%
same,Percent Growth,A498; Log10 Concentration −5.0,32%
same,Percent Growth,A498; Log10 Concentration −6.0,66%
same,Percent Growth,A498; Log10 Concentration −7.0,70%
same,Percent Growth,A498; Log10 Concentration −8.0,71%
same,GI50,A498; NCI five dose,2.97 µM
same,TGI,A498; NCI five dose,1.84E−5
same,Percent Growth,SNB-19; Log10 Concentration −4.0,−38%
same,Percent Growth,SNB-19; Log10 Concentration −5.0,74%
same,Percent Growth,SNB-19; Log10 Concentration −6.0,92%
same,Percent Growth,SNB-19; Log10 Concentration −7.0,95%
same,Percent Growth,SNB-19; Log10 Concentration −8.0,94%
same,GI50,SNB-19; NCI five dose,16.4 µM
same,TGI,SNB-19; NCI five dose,4.59E−5
same,Percent Growth,M14; Log10 Concentration −4.0,−66%
same,Percent Growth,M14; Log10 Concentration −5.0,27%
same,Percent Growth,M14; Log10 Concentration −6.0,87%
same,Percent Growth,M14; Log10 Concentration −7.0,89%
same,Percent Growth,M14; Log10 Concentration −8.0,99%
same,GI50,M14; NCI five dose,4.1 µM
same,TGI,M14; NCI five dose,1.93E−5
same,Percent Growth,SR; Log10 Concentration −4.0,−45%
same,Percent Growth,SR; Log10 Concentration −5.0,4%
same,Percent Growth,SR; Log10 Concentration −6.0,77%
same,Percent Growth,SR; Log10 Concentration −7.0,96%
same,Percent Growth,SR; Log10 Concentration −8.0,101%
same,GI50,SR; NCI five dose,2.33 µM
same,TGI,SR; NCI five dose,1.21E−5
same,Percent Growth,HT29; Log10 Concentration −4.0,−73%
same,Percent Growth,HT29; Log10 Concentration −5.0,21%
same,Percent Growth,HT29; Log10 Concentration −6.0,104%
same,Percent Growth,HT29; Log10 Concentration −7.0,96%
same,Percent Growth,HT29; Log10 Concentration −8.0,101%
same,GI50,HT29; NCI five dose,4.5 µM
same,TGI,HT29; NCI five dose,1.68E−5
same,Percent Growth,SK-MEL-28; Log10 Concentration −4.0,−79%
same,Percent Growth,SK-MEL-28; Log10 Concentration −5.0,24%
same,Percent Growth,SK-MEL-28; Log10 Concentration −6.0,91%
same,Percent Growth,SK-MEL-28; Log10 Concentration −7.0,91%
same,Percent Growth,SK-MEL-28; Log10 Concentration −8.0,98%
same,GI50,SK-MEL-28; NCI five dose,4.11 µM
same,TGI,SK-MEL-28; NCI five dose,1.72E−5
same,Percent Growth,OVCAR-3; Log10 Concentration −4.0,−100%
same,Percent Growth,OVCAR-3; Log10 Concentration −5.0,7%
same,Percent Growth,OVCAR-3; Log10 Concentration −6.0,86%
same,Percent Growth,OVCAR-3; Log10 Concentration −7.0,100%
same,Percent Growth,OVCAR-3; Log10 Concentration −8.0,99%
same,GI50,OVCAR-3; NCI five dose,2.87 µM
same,TGI,OVCAR-3; NCI five dose,1.17E−5
